Structures can show the parent of a compound that is named as a salt.
Experiments:
[1] = N-1 versus N-2 crystalline dihydrochloride salts; cited from earlier work
[2] = Hygroscopicity; assay type: physicochemical

SMILES | thermodynamic stability among polymorphs [1] | hygroscopicity [2]
COC(=O)N[C@H](C(=O)N1CCC[C@H]1c1nc(-c2ccc(-c3ccc(-c4c[nH]c([C@@H]5CCCN5C(=O)[C@@H](NC(=O)OC)C(C)C)n4)cc3)cc2)c[nH]1)C(C)C [Form N-2, methyl((1S)-1-(((2S)-2-(5-(4′-(2-((2S)-1-((2S)-2-((methoxycarbonyl)amino)-3-methylbutanoyl)-2-pyrrolidinyl)-1H-imidazol-5-yl)-4-biphenylyl)-1H-imidazol-2-yl)-1-pyrrolidinyl)carbonyl)-2-methylpropyl) carbamate dihydrochloride] | thermodynamically most stable polymorph | –
COC(=O)N[C@H](C(=O)N1CCC[C@H]1c1ncc(-c2ccc(-c3ccc(-c4cnc([C@@H]5CCCN5C(=O)[C@@H](NC(=O)OC)C(C)C)[nH]4)cc3)cc2)[nH]1)C(C)C [Form A, methyl((1 S)-1-(((2S)-2-(5-(4′-(2-((2S)-1-((2S)-2-((methoxycarbonyl)amino)-3-methylbutanoyl)-2-pyrrolidinyl)-1H-imidazol-5-yl)-4-biphenylyl)-1H-imidazol-2-yl)-1-pyrrolidinyl)carbonyl)-2-methylpropyl)carbamate] | – | substantially non-hygroscopic
